Three compounds from article PMC6608960 (PLoS ONE, 2019) can be followed below.

As usually defined, the pEC50 is the negative decadic logarithm of the EC50, by convention in mol/L.

Experiment [1] addresses T1, V2 receptor (AVP-R2) overexpressed in CHO-K1 cells (Homo sapiens, UniProt P30518).
T1 construct: host or cells: CHO-K1
In words: Intracellular cAMP release in AVP-R2 CHO-K1 cells (cAMP Hunter eXpress). The class given is cell-based. The note with it: peptide alone, 30 min at 37°C, chemiluminescent read-out. How it is done:
Changes in intracellular cAMP level in response to agonist stimulation of the GPCR receptor was detected with a chemiluminescent cAMP Hunter eXpress Cat.No: # 95-0150E2CP2M kit from DiscoveRx (www.discoverx.com). A standard curve of cAMP (in duplicate) was included in the same plate and used to report data in nM cAMP. […] The values of cAMP were presented as relative light units (RLU) or they were calculated in nM from the standard curve.

The test system of experiment [2] is Wistar rats. In words: Urine, sodium and potassium outflow after iv injection in rats (metabolic cages, 5 h). The class given is in vivo. Conditions: Wistar rat.
Procedure: Experiments were performed using 8-week-old Wistar rats (225-250g) purchased from Charles River laboratories (St. Constant, QC, CA). Rats were housed in a standard temperature and light condition with access to water and irradiated standard rodent diet (Harlan Laboratories Inc., IN, USA) ad libitum. At the end of experiments, rats were anaesthetized with sodium pentobarbital (5mg/100 g body wt. i.p.; 20 𝜇mol/100 g body wt.) and blood samples (2mL, EDTA) were collected. Rats were euthanized by cervical decapitation.
Peptides were dissolved at the desired concentration in 0.3 mL of the vehicle and administered as a single bolus in the tail vein.
Both antagonists (OTA, V2A) were administered to rats at the concentration of 10 μmol/kg under normal conditions (0.3 mL iv injection) and with blood volume expansion (5 mL iv injection). Rats (n = 24 per condition) received combination treatment in random order separated by a 2–3 day interval. For both series of experiments, rats were placed in metabolic cages for a period of 5 hours to collect urine for the determination of sodium and potassium levels. Metabolic cages were kept in a bright and quiet room and rats were deprived of food and water during this period.
The concentrations of excreted sodium and potassium were determined by flame spectrometry (iCE 3000 series AA spectrometer; Thermo Fisher Scientific, Cambridge, UK).

pEC50: −log10 of the molar value. Where a SMILES comes first, the peptide text is derived from it.

T1 sequence (P30518 whole entry): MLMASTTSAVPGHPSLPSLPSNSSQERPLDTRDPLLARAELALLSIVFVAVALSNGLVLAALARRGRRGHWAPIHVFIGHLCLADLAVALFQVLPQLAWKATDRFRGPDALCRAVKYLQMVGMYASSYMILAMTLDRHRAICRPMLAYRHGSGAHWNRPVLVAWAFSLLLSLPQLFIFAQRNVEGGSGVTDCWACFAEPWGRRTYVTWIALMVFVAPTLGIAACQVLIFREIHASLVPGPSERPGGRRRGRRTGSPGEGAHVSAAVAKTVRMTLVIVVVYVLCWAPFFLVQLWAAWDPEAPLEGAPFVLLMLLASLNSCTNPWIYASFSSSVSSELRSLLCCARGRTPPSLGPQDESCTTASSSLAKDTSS

As for `CC[C@H](C)[C@@H]1NC(=O)[C@H](Cc2ccc(O)cc2)NC(=O)[C@@H](N)CSSC[C@@H](C(=O)N2CCC[C@H]2C(=O)N[C@@H](CC(C)C)C(=O)NCC(=O)NCC(=O)N[C@@H](CCCCN)C(=O)N[C@@H](CCCNC(=N)N)C(=O)O)NC(=O)[C@H](CC(N)=O)NC(=O)[C@H](CCC(N)=O)NC1=O` [OT-GKR] (HELM PEPTIDE1{C.Y.I.Q.N.C.P.L.G.G.K.R}$PEPTIDE1,PEPTIDE1,1:R3-6:R3$$$V2.0), the pEC50 in experiment [1] was 5.96.

In the case of “[d(CH2)5, Tyr(Me)2, Thr4, Orn8, Tyr-NH29]-vasotocin [OTA]”, the “effect of antagonist on OT-stimulated diuresis” value in experiment [2] (OTA co-administered with OT, normal volume and blood volume expansion (5 mL)) is “inhibited OT-stimulated diuresis to control and BVE levels”.

Consider “[d(CH2)5, D-Ile2, Ile4, Tyr-NH29]-AVP [V2A]”, for which the “effect of antagonist alone on diuresis” value in experiment [2] (V2A alone iv, normal volume and blood volume expansion) is on record as “significant diuresis”.
